Results taken from US11590116B2 (THERAVANCE BIOPHARMA R&D IP, LLC, priority 2019, dated 2023).

Experiments:
[1] = test system: TGF-β-stimulated SMAD3 phosphorylation in BEAS-2B cells; assay: Cellular ALK5 potency assay, inhibition of TGF-β stimulated pSMAD3 formation in BEAS-2B cells; format: cell-based; details: Homo sapiens; inhibition of TGF-β stimulated pSMAD3 formation, BEAS-2B cells; read-out: BEAS2B pIC50 (converted)
Outline: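 pSMAD3 was quantified by AlphaLISA in BEAS-2B lysates after 10 ng/mL TGF-β (final) for 30 min. Before stimulation, cells received compound for 1 h at 37° C in supplemented HBSS. Values are pIC50, relative to TGF-β-stimulated cells without compound.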

[2] = biological target: T1, recombinant human ALK5 (TGF-βR1) protein (Homo sapiens, UniProt P36897); assay: Biochemical ALK5 (TGF-βR1) assay to measure pKi (LANCE Ultra ULight kinase assay); details: apparent pKi from pIC50 by Cheng-Prusoff, read-out: ALK5 pKi (converted)
T1 construct: purchased Life Technologies PR9075A
T1 sequence (P36897 34-503): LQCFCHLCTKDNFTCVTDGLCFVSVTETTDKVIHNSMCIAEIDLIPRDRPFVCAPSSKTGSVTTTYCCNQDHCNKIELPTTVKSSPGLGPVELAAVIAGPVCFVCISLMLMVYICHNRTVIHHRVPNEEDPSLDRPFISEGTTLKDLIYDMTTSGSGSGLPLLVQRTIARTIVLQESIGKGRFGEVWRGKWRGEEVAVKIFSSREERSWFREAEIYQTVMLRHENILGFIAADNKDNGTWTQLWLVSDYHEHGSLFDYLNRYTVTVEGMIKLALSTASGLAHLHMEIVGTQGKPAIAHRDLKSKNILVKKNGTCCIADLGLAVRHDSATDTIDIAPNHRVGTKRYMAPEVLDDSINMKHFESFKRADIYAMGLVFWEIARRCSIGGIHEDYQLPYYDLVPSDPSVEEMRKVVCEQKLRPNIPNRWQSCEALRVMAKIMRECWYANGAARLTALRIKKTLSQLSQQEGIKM
Outline: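 Compounds (10 μM to 25 pM) preincubated 60 minutes at room temperature with enzyme, then reaction run 60 minutes at 37° C with ATP added as 125 μM (5× final). Stopped with EDTA plus Eu-anti-phospho-Topoisomerase 2-alpha (Thr1342) antibody, TR-FRET read at 665 nm; pIC50 converted to pKi via Cheng-Prusoff.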

| SMILES | Ki [2] [nM] | IC50 [1] [nM] |
| --- | --- | --- |
| CCOc1nc(-c2ccc3ncc(Br)cc3c2)c(-c2cccc(C)n2)[nH]1 [Compound 1185, 3-bromo-6-[2-ethoxy-5-(6-methyl-2-pyridyl)-1H-imidazol-4-yl]quinoline] | 0.398 to 3.16 | 25.1 to 158 |
| Cc1cccc(-c2[nH]ncc2-c2ccc3ncc(C(=O)OCCCCN4CCCC4)cc3n2)n1 [Compound 146, 4-pyrrolidin-1-ylbutyl 6-[5-(6-methyl-2-pyridyl)-1H-pyrazol-4-yl]-1,5-naphthyridine-3-carboxylate] | 0.0398 to 0.316 | 25.1 to 158 |
| Cc1cccc(-c2[nH]cnc2-c2ccc3ncc(C4=CCC(NCC5CCOC5=O)CC4)cc3c2)n1 (centres unmarked) [Compound 456, 3-[[[4-[6-[5-(6-methyl-2-pyridyl)-1H-imidazol-4-yl]-3-quinolyl]cyclohex-3-en-1-yl]amino]methyl]tetrahydrofuran-2-one] | < 0.0316 | < 20 |
| Cc1cccc(-c2[nH]cnc2-c2ccc3ncc(C4=CC[C@H](NC(=O)[C@@H]5CCCN5)CC4)cc3c2)n1 [Compound 418, (2S)—N-[(1R)-4-[6-[5-(6-methyl-2-pyridyl)-1H-imidazol-4-yl]-3-quinolyl]cyclohex-3-en-1-yl]pyrrolidine-2-carboxamide] | 0.0398 to 0.316 | 25.1 to 158 |
| Cc1cccc(-c2[nH]cnc2-c2ccc3ncc(NCCN4C[C@@H](C)N[C@@H](C)C4)cc3c2)n1 [Compound 313, N-(2-((3R,5S)-3,5-dimethylpiperazin-1-yl)ethyl)-6-(5-(6-methylpyridin-2-yl)-1H-imidazol-4-yl)quinolin-3-amine] | 0.0398 to 0.316 | 25.1 to 158 |
| Cc1cccc(-c2[nH]cnc2-c2ccc3nccc(C(=O)OCCN4CCNCC4)c3c2)n1 [Compound 1121, 2-piperazin-1-ylethyl 6-[5-(6-methyl-2-pyridyl)-1H-imidazol-4-yl]quinoline-4-carboxylate] | 0.398 to 3.16 | 200 to 1260 |
| Cc1cccc(-c2[nH]ncc2-c2ccc3ncc(C(=O)OCCN4CCNCC4)cc3n2)n1 [Compound 277, 2-piperazin-1-ylethyl 6-[5-(6-methyl-2-pyridyl)-1H-pyrazol-4-yl]-1,5-naphthyridine-3-carboxylate] | 0.0398 to 0.316 | 200 to 1260 |
| Cc1cccc(-c2n[nH]cc2-c2ccc3nccc(NCCN4CCOCC4)c3n2)n1 [Compound 823, 6-[3-(6-methyl-2-pyridyl)-1H-pyrazol-4-yl]-N-(2-morpholinoethyl)-1,5-naphthyridin-4-amine] | 0.398 to 3.16 | 200 to 1260 |
| Cc1cccc(-c2[nH]cnc2-c2ccc3ncc(C(=O)O[C@H]4CCC[C@H](N)C4)cc3c2)n1 (racemic) [Compound 774, [rac-(1S,3S)-3-aminocyclohexyl] 6-[5-(6-methyl-2-pyridyl)-1H-imidazol-4-yl]quinoline-3-carboxylate] | 0.398 to 3.16 | 200 to 1260 |
| Cc1nc(-c2n[nH]cc2-c2ccc3ncc(NCCN4CCCC4)cc3n2)ccc1F [Compound 381, 6-[3-(5-fluoro-6-methyl-2-pyridyl)-1H-pyrazol-4-yl]-N-(2-pyrrolidin-1-ylethyl)-1,5-naphthyridin-3-amine] | < 0.0316 | 25.1 to 158 |
| CNCCn1cc(-c2cnc3ccc(-c4c(-c5cccc(C)n5)nnn4CC(=O)O)nc3c2)cn1 [Compound 630, 2-[5-[7-[1-[2-(methylamino)ethyl]pyrazol-4-yl]-1,5-naphthyridin-2-yl]-4-(6-methyl-2-pyridyl)triazol-1-yl]acetic acid] | 0.398 to 3.16 | 1580 to 10000 |
| Cc1cccc(-c2[nH]cnc2-c2ccc3ncc(C4=CCC(NCC(CCO)C(=O)O)CC4)cc3c2)n1 (centres unmarked) [Compound 150, 4-hydroxy-2-[[[4-[6-[5-(6-methyl-2-pyridyl)-1H-imidazol-4-yl]-3-quinolyl]cyclohex-3-en-1-yl]amino]methyl]butanoic acid] | < 0.0316 | 200 to 1260 |
| Cc1cccc(-c2n[nH]cc2-c2ccc3ncc(N4CCC(N5CCOCC5)CC4)cc3n2)n1 [Compound 250, 4-[1-[6-[3-(6-methyl-2-pyridyl)-1H-pyrazol-4-yl]-1,5-naphthyridin-3-yl]-4-piperidyl]morpholine] | < 0.0316 | 25.1 to 158 |

Continued, in another order:

| Ki [2] [nM] | SMILES | IC50 [1] [nM] |
| --- | --- | --- |
| 3.98 to 31.6 | Cc1cccc(-c2[nH]ncc2-c2ccc3ncc(C(=O)O)cc3c2)n1 [Compound 783, 6-[5-(6-methyl-2-pyridyl)-1H-pyrazol-4-yl]quinoline-3-carboxylic Acid] | 1580 to 10000 |
| 0.0398 to 0.316 | Cc1cccc(-c2n[nH]cc2-c2ccc3ncc(N4CCC[C@@H](N(C)C)C4)cc3n2)n1 [Compound 433, (3R)-N,N-dimethyl-1-[6-[3-(6-methyl-2-pyridyl)-1H-pyrazol-4-yl]-1,5-naphthyridin-3-yl]piperidin-3-amine] | 25.1 to 158 |
| 3.98 to 31.6 | Cc1cccc(-c2n[nH]cc2-c2ccc3ncc(N4CCN(C(C)C)C(C)(C)C4)cc3n2)n1 [Compound 20, 7-(4-isopropyl-3,3-dimethyl-piperazin-1-yl)-2-[3-(6-methyl-2-pyridyl)-1H-pyrazol-4-yl]-1,5-naphthyridine] | 200 to 1260 |
| < 0.0316 | Cc1cccc(-c2n[nH]cc2-c2ccc3ncc(-c4nc(CO)co4)cc3n2)n1 [Compound 32, [2-[6-[3-(6-methyl-2-pyridyl)-1H-pyrazol-4-yl]-1,5-naphthyridin-3-yl]oxazol-4-yl]methanol] | 25.1 to 158 |
| < 0.0316 | Cc1cccc(-c2[nH]cnc2-c2ccc3ncc(-c4nc(C(=O)OCCNC5CNC5)cs4)cc3c2)n1 [Compound 1254, 2-(azetidin-3-ylamino)ethyl 2-[6-[5-(6-methyl-2-pyridyl)-1H-imidazol-4-yl]-3-quinolyl]thiazole-4-carboxylate] | 200 to 1260 |
| < 0.0316 | Cc1cccc(-c2n[nH]cc2-c2ccc3ncc(N)cc3n2)n1 [Compound 300, 6-[3-(6-methyl-2-pyridyl)-1H-pyrazol-4-yl]-1,5-naphthyridin-3-amine] | < 20 |
| 0.0398 to 0.316 | Cc1cccc(-c2[nH]cnc2-c2ccc3ncc(-c4ccnc(C(=O)O[C@H]5CCNC5)c4)cc3c2)n1 [Compound 1058, [(3S)-pyrrolidin-3-yl] 4-[6-[5-(6-methyl-2-pyridyl)-1H-imidazol-4-yl]-3-quinolyl]pyridine-2-carboxylate] | 200 to 1260 |
| 0.0398 to 0.316 | Cc1cccc(-c2[nH]cnc2-c2ccc3ncc(-c4csc(C(=O)O[C@H]5CCNC5)c4)cc3c2)n1 [Compound 754, [(3S)-pyrrolidin-3-yl] 4-[6-[5-(6-methyl-2-pyridyl)-1H-imidazol-4-yl]-3-quinolyl]thiophene-2-carboxylate] | 25.1 to 158 |
| 0.398 to 3.16 | Cc1cccc(-c2n[nH]cc2-c2ccc3nccc(CO)c3n2)n1 [Compound 801, [6-[3-(6-methyl-2-pyridyl)-1H-pyrazol-4-yl]-1,5-naphthyridin-4-yl]methanol] | 200 to 1260 |
| < 0.0316 | Cc1cccc(-c2[nH]cnc2-c2ccc3ncc(-c4nc(C(=O)OCC5CNC5)cs4)cc3c2)n1 [Compound 746, azetidin-3-ylmethyl 2-[6-[5-(6-methyl-2-pyridyl)-1H-imidazol-4-yl]-3-quinolyl]thiazole-4-carboxylate] | 25.1 to 158 |
| 0.398 to 3.16 | Cc1cccc(-c2n[nH]cc2-c2ccc3ncc(-n4cc(-c5ccccc5)nn4)cc3n2)n1 [Compound 133, 2-[3-(6-methyl-2-pyridyl)-1H-pyrazol-4-yl]-7-(4-phenyltriazol-1-yl)-1,5-naphthyridine] | 25.1 to 158 |
| < 0.0316 | Cc1cccc(-c2[nH]cnc2-c2ccc3ncc(-c4nc(C(=O)OCCN5CCC[C@H](N)C5)cs4)cc3c2)n1 [Compound 1172, 2-[(3S)-3-amino-1-piperidyl]ethyl 2-[6-[5-(6-methyl-2-pyridyl)-1H-imidazol-4-yl]-3-quinolyl]thiazole-4-carboxylate] | 200 to 1260 |
| 0.0398 to 0.316 | Cc1cccc(-c2n[nH]cc2-c2ccc3ncc(-c4nnn5c4CNCC5)cc3c2)n1 [Compound 343, 6-[3-(6-methyl-2-pyridyl)-1H-pyrazol-4-yl]-3-(4,5,6,7-tetrahydrotriazolo[1,5-a]pyrazin-3-yl)quinoline] | 25.1 to 158 |
| < 0.0316 | Cc1cccc(-c2[nH]cnc2-c2ccc3ncc(-c4cccc(C(=O)OCC5CNC5)n4)cc3c2)n1 [Compound 1044, azetidin-3-ylmethyl 6-[6-[5-(6-methyl-2-pyridyl)-1H-imidazol-4-yl]-3-quinolyl]pyridine-2-carboxylate] | 200 to 1260 |
| < 0.0316 | Cc1cccc(-c2[nH]nnc2-c2ccc3ncc(N4CCC(N(C)C)C4)cc3c2)n1 (racemic) [Compound 561, rac-(3S)-N,N-dimethyl-1-[6-[5-(6-methyl-2-pyridyl)-1H-triazol-4-yl]-3-quinolyl]pyrrolidin-3-amine] | 25.1 to 158 |
